Experimental data as given in paper PMC7071015, “Structure-Based Design, Synthesis and Bioactivity of a New Anti-TNFα Cyclopeptide” (Molecules, 2020).
Where a SMILES comes first, the peptide text is derived from it. Bridges are numbered along the chain shown (N, C = ends). Where no end group is shown, it is not given here.

Legend:
TNFα production = settings: stimulated monocytes; by promoting TNFα mRNA degradation; cited from earlier work
Excerpt: (§1) A range of biologics targeting TNFα have been licensed for the treatment of various inflammatory diseases, such as rheumatoid arthritis and Crohn’s disease. Although these agents have high potency and specificity, they are limited by their high production costs and potential immunogenicity. […] Also, their large molecular weight and low oral stability means their administration is only feasible through injection [[12 ...

TNFα [1] = settings: cited from earlier work
Procedure: Small molecule with anti-TNFα activity with compact 3D conformations containing trifluoromethylphenyl indole and chromone moieties have previously been designed. These compounds bind with high affinity (IC50 = 13 μM) to a hydrophobic binding pocket formed by six tyrosine residues (Y59, Y119 and Y151 from chain A and B) at the interface of TNFα dimer. Alternative binding pockets that bind small molecules have also been identified from the predicted TNFα-TNFR1 complex and these involve the residues H66, L67 and L71 of TNFR1 and residues R82, F90 and F127 in TNFα [18]. Recently, a small ...

recombinant human TNFα = molecular target: T1, recombinant human TNFα (Homo sapiens, UniProt P01375); assay: HEK-Blue TNFα sensor cell assay (NF-ĸB-induced SEAP reporter); type: cell-based
T1 construct: purchased InvivoGen
Procedure: In the assay, the cells are transfected with a secretory alkaline phosphatase reporter gene which is downstream of the NF-ĸB promoter and expressed in response to TNFα receptor activation. The alkaline phosphatase activity was then quantified by measuring the absorbance (λ = 620 nm) of coloured substrate. […] Activation of HEK-Blue TNFα cells by 1 ng/mL of human TNFα (InvivoGen) in the presence and absence of anti-hTNFα antibody (InvivoGen) were used as positive and negative controls in the anti-TNFα assay (Figure 3).
Peptides were dissolved in DMSO and solutions were diluted with the cell culture media so the final concentration of DMSO is 1%. Blank experiments with 1% DMSO were carried out.
TNFα sensor cells (HEK-Blue) were grown in Dulbecco’s Modified Eagle’s medium (DMEM) containing 4.5 g/L glucose and supplemented with 10% [v/v] heat-inactivated foetal bovine serum, 2 mM L-glutamine, 100 μg/mL normocin, 50 U/mL penicillin and 50 μg/mL streptomycin. Selective antibiotics added to the culture medium include 100 μg/mL zeocin and 1 μg/mL puromycin and avoided in initial cultures (first 2 passages). Maintenance cultures were kept in T-75 cell culture flasks and incubated in humidified incubator with 5% [v/v] […]
can then be quantified in cells supernatant (20 μL) by the reaction with 180 µL of QUANTI‐
Blue™, a reagent that turns from purple to blue in the presence of SEAP. Quantification of […]

HEK-Blue TNFα cells = settings: 24 h, OD 540 nm, at the concentration used to test anti-TNFα activity, one duplicate
Procedure: Therefore, this can be used as preliminary data for further biological evaluations.
This assay was performed with one duplicate, and the error bars show standard error.
The Vybrant®® MTT assay (Thermo Fisher Scientific) was performed following the manufacturer protocol. In this assay, cell permeable tetrazolium dye (yellow) was […] in viable cells to yield the water-insoluble formazan (purple) after incubation with HEK-TNFα cells. Formazan was then solubilised and quantified by measuring the UV absorbance at 540 nm.

[2] = qualitative; reason for NMR in methanol-d3
TNFα [3] = test system: TNFα; parameters: method as in PMID 7756262; settings: K562 cells, 125I-labelled TNFα; cited from earlier work
[4] = test system: menin-MLL protein–protein interaction; settings: cited from earlier work
Excerpt: (§2) This was achieved by producing a cyclic peptide with higher target specificity compared to small molecules and low potential of immunogenicity when compared with biologics. Protein loops are often involved in the biomolecular recognition of proteins. Loop peptidomimetics have previously been introduced as a new class of bioactive agents. The ...

[5] = test system: protein kinase 2 regulatory subunit (CK2β) / catalytic subunit interaction; settings: cited from earlier work
Excerpt: as §2

[6] = cited from earlier work
Excerpt: as §1

[7] = molecular target: recombinant human tumour necrosis factor alpha (TNFα) (human) (UniProt P01375)
Sequence of recombinant human tumour necrosis factor alpha (TNFα) (human) (P01375 77-233): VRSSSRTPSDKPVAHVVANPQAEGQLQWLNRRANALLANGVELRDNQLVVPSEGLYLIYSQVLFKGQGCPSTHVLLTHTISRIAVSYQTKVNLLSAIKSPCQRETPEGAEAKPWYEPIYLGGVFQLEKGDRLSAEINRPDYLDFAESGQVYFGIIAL

T1 sequence (P01375 77-233 limits assumed): as the sequence (P01375 77-233) above

For `O=C1CCC(N2C(=O)c3ccccc3C2=O)C(=O)N1` (stereo not shown) [Thalidomide], the “effect on TNFα production” value (TNFα production) is listed as “inhibits TNFα production”.

For `Cc1ccc(C)c(Cn2c(CO)nc3ccccc32)c1` [UCB-6876], the “effect on TNFα trimer in co-crystal structure” value (TNFα [1]) is given as “change in the spatial arrangement of the TNFα trimer and a loss of its 3-fold symmetry”.

For `CC(C)C[C@@H]1NC(=O)[C@H](Cc2ccc(O)cc2)NC(=O)[C@H](CCC(N)=O)NC(=O)[C@H](CO)NC(=O)[C@H](Cc2c[nH]c3ccccc23)NC(=O)[C@@H](NC(=O)[C@@H](N)Cc2ccc(O)cc2)CSSC[C@@H](C(=O)N[C@@H](Cc2ccc(O)cc2)C(=O)O)NC1=O` [WP9QY], the IC50 (recombinant human TNFα) was 122 µM and the “cytotoxicity (MTT)” value (HEK-Blue TNFα cells) was “no significant cytotoxicity”.

In the case of `CC(C)C[C@@H]1NC(=O)[C@H](CC(N)=O)NC(=O)[C@H](CCC(=O)O)NC(=O)[C@H](CO)NC(=O)[C@H](Cc2c[nH]c3ccccc23)NC(=O)[C@H](Cc2ccc(O)cc2)NC(=O)[C@H](Cc2c[nH]cn2)NC(=O)CNC(=O)[C@@H]2CCCN2C(=O)[C@H](CCC(N)=O)NC(=O)[C@H](Cc2ccccc2)NC1=O` [compound 1] (cyclo(HYWSENLFQPG)), the “concentration achieving inhibition of TNFα activity by 35%” value (recombinant human TNFα; 35% inhibition, 1 ng/mL recombinant human TNFα, 24 h, 1% DMSO, absorbance 620 nm, duplicates) is reported as 117.4 µM, the “cytotoxicity (MTT)” value (HEK-Blue TNFα cells) is reported as “no significant cytotoxicity” and the solubility in water [2] is reported as “low solubility”.

For `Cc1ccc(C(=O)Nc2ccc(S(=O)(=O)O)c3cc(S(=O)(=O)O)cc(S(=O)(=O)O)c23)cc1NC(=O)c1cccc(NC(=O)Nc2cccc(C(=O)Nc3cc(C(=O)Nc4ccc(S(=O)(=O)O)c5cc(S(=O)(=O)O)cc(S(=O)(=O)O)c45)ccc3C)c2)c1` [suramin], the “effect on TNFα oligomer” value (TNFα [3]) is given as “Deoligomerisation of TNFα”.

For MCP-1, the “inhibition of menin-MLL interaction” value [4] is given as “inhibitor of the menin-MLL protein–protein interaction”.

In the case of “cyclo-GCRLYGFKIHGCG [cyclic peptide derived from the regulatory subunit (CK2β) of protein kinase 2]”, the “inhibition of CK2β interaction with catalytic subunit” value [5] is given as “inhibits the interaction with the associated catalytic subunit”.

For “infliximab: large molecule biologic targeting TNFα”, the adverse reaction [6] is given as “associated with development of infusion reaction”.

B1: cyclic peptide 1 (WP9 loop peptidomimetic 1) (peptide)
peptide: HYWSENLFQPG
modifications: cyclised head to tail (N- to C-) via a proline-glycine linker
Work on B1 yielded a concentration that inhibits TNFα activity by 35% in HEK-Blue TNFα sensor cells (NF-kB-driven secreted alkaline phosphatase), 1 ng/mL human TNFα, 24 h; the pair said to be blocked is TNFα with TNFR-1 [7] of 117 µM.

B2: WP9QY (peptide)
peptide: YCWSQYLCY
modifications: disulfide 2-8 (inferred)
For B2, the concentration that inhibits TNFα activity by 35% in HEK-Blue TNFα sensor cells (NF-kB-driven secreted alkaline phosphatase), 1 ng/mL human TNFα, 24 h; the pair said to be blocked is TNFα with TNFR-1 [7] was 97.2 µM.
